Measured values reported in the supplement of paper PMC3974653.
Structures can show the parent of a compound that is named as a salt.

Tested on: MTT (mouse pheochromocytoma)
Test: IC50 of cell viability (ATP content)
Conditions: (24 or 48 h)
Summary of the method: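 The IC50 was fitted with a four-parameter logistic equation to normalised CellTiter-Glo ATP luminescence from MTT mouse pheochromocytoma cells. These cells, in white 1536-well plates, had been treated for 24 or 48 hrs with library compounds at 8 final concentrations between 0.5 nM and 46 µM, and luminescence was read after 15 minutes. Positive-control wells served as 100% and DMSO wells as 0%.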

CCC1NC(=O)C(NC(=O)c2ncccc2O)C(C)OC(=O)C(c2ccccc2)NC(=O)C2CC(=O)CCN2C(=O)C(Cc2ccccc2)N(C)C(=O)C2CCCN2C1=O (stereo unspecified) [VIRGINIAMYCIN]
IC50 of cell viability: > 46 µM

CC(C)[C@H](N)C(=O)OCCOCn1cnc2c(O)nc(N)nc21 [Valacyclovir hydrochloride]
IC50 of cell viability: > 46 µM

CCCCC(=O)O [Valeric acid]
IC50 of cell viability: > 46 µM

CCCCC(=O)[O-] [Valeric acid]
IC50 of cell viability: > 46 µM

CCCC(CCC)C(=O)O [Valproic acid]
IC50 of cell viability: > 46 µM

CCCC(CCC)C(N)=O [Valpromide]
IC50 of cell viability: > 46 µM

CN[C@@H](CC(C)C)C(=O)N[C@@H]1C(=O)N[C@H](CC(N)=O)C(=O)N[C@H]2C(=O)N[C@@H]3C(=O)N[C@H](C(=O)N[C@H](C(=O)O)c4cc(O)cc(O)c4-c4cc3ccc4O)[C@H](O)c3ccc(c(Cl)c3)Oc3cc2cc(c3O[C@@H]2O[C@@H](CO)[C@@H](O)[C@@H](O)[C@H]2O[C@H]2C[C@](C)(N)[C@H](O)[C@H](C)O2)Oc2ccc(cc2Cl)[C@@H]1O [Vancomycin hydrochloride]
IC50 of cell viability: > 46 µM

CCN(CC)C(=O)c1ccc(O)c(OC)c1 [Vanillic acid diethylamide]
IC50 of cell viability: > 46 µM

COc1cc(C=O)ccc1O [Vanillin]
IC50 of cell viability: > 46 µM

COc1cc(C(=S)N2CCOCC2)ccc1O [Vanitiolida]
IC50 of cell viability: > 46 µM

c1cnc2cc3c(cc2n1)[C@@H]1CNC[C@@H]3C1 [Varenicline Tartrate]
IC50 of cell viability: > 46 µM

c1cnc2cc3c(cc2n1)C1CNCC3C1 [Varenicline]
IC50 of cell viability: > 46 µM

Clc1ccc(Nc2nnc(Cc3ccncc3)c3ccccc23)cc1 [Vatalanib Dihydrochloride]
IC50 of cell viability: > 46 µM

C=CCN1CCCC1CNC(=O)c1cc([S+](N)(=O)[O-])cc(OC)c1OC (stereo unspecified) [Veraliprida]
IC50 of cell viability: > 46 µM

COc1ccc(/C=N/NC(=O)c2ccncc2)cc1OC [Verazide]
IC50 of cell viability: > 46 µM

CC=1C2=CC3=N/C(=C/C4=C(C(=C(N4)/C=C/5\N=C(/C=C(/C1CCC(=O)O)\N2)C(=C5C)CCC(=O)OC)C=C)C)/C6=CC=C([C@H]([C@]36C)C(=O)OC)C(=O)OC.CC1=C2/C=C/3\N=C(/C=C/4\C(=C(/C(/N4)=C/C5=N/C(=C\C(=C1CCC(=O)OC)N2)/C(=C5C)CCC(=O)O)C=C)C)C6=CC=C([C@H]([C@]36C)C(=O)OC)C(=O)OC [Verteporfin]
IC50 of cell viability: > 46 µM

CC[C@@]1(O)CC2CN(CCC3=C([NH]C4=CC=CC=C34)[C@](C2)(C(=O)OC)C5=C(OC)C=C6N(C)C7[C@](O)([C@H](O)[C@]8(CC)\C=C/CN9CC[C@@]7([C@H]89)C6=C5)C(N)=O)C1 (stereo partly specified) [Vindesine Sulfate Salt]
IC50 of cell viability: > 46 µM

C=CS(=O)(=O)[O-] [Vinylsulfonic acid sodium salt solution]
IC50 of cell viability: > 46 µM

O=C(O)CCCCC1SCC2NC(=O)NC21 (stereo unspecified) [Vitamin B7]
IC50 of cell viability: > 46 µM

CC(=O)Oc1c(C)c(C)c2c(c1C)CC[C@@](C)(CCC[C@H](C)CCC[C@H](C)CCCC(C)C)O2 [Vitamin E acetate]
IC50 of cell viability: > 46 µM

CC(C)=CCC/C(C)=C\CC/C(C)=C\CC/C(C)=C\CC1=C(C)C(=O)c2ccccc2C1=O [Vitamin K2]
IC50 of cell viability: > 46 µM

CC(c1ncncc1F)[C@](O)(Cn1cncn1)c1ccc(F)cc1F (stereo partly specified) [Voriconazole]
IC50 of cell viability: > 46 µM

CC(=O)CC(c1ccccc1)C1C(=O)Oc2ccccc2C1=O (stereo unspecified) [WARFARIN POTASSIUM]
IC50 of cell viability: > 46 µM

CC(=O)CC(C1=CC=CC=C1)C/2=C(O)/C3=CC=CC=C3OC2=O (stereo unspecified) [WARFARIN]
IC50 of cell viability: > 46 µM

FC(F)(F)c1cccc(C2=CCN(CCc3ccc4ccccc4c3)CC2)c1 [XALIPRODEN HYDROCHLORIDE]
IC50 of cell viability: > 46 µM

O=C(NCCNCC(O)COc1ccc(O)cc1)N1CCOCC1 (stereo unspecified) [XAMOTEROL]
IC50 of cell viability: > 46 µM

CC1=CC=CC(=C1N\C2=N\CCCS2)C [XYLAZINE]
IC50 of cell viability: > 46 µM

CN(CCO)CC(O)Cn1cnc2c1c(=O)n(C)c(=O)n2C.O=C(O)c1cccnc1 (stereo unspecified) [Xanthinol niacinate]
IC50 of cell viability: > 46 µM

O=C(O)c1ccccc1-c1ccc(C(F)(F)F)cc1 [Xenalipin]
IC50 of cell viability: > 46 µM

Cc1cccc(C)c1NC(=O)NC1=CCCN1C [Xilobam]
IC50 of cell viability: > 46 µM

CCOC(=O)CN[C@@H](C(=O)N1CC[C@H]1C(=O)NCc1ccc(/C(N)=N/O)cc1)C1CCCCC1 [Ximelagatran]
IC50 of cell viability: > 46 µM

Cc1cccc(C)c1NC(=O)c1cc([S+](N)(=O)[O-])c(Cl)cc1O [Xipamide]
IC50 of cell viability: > 46 µM

CC1=CC(=CC(=C1C\C2=N\CCN2)C)C(C)(C)C [Xylometazoline hydrochloride]
IC50 of cell viability: > 46 µM

OC1OC[C@@H](O)[C@H](O)[C@@H]1O (stereo partly specified) [Xylose]
IC50 of cell viability: > 46 µM

COC(=O)[C@@H]1[C@@H]2C[C@H]3c4[nH]c5ccccc5c4CCN3C[C@@H]2CC[C@@H]1O [Yohimbine]
IC50 of cell viability: > 46 µM

O.O=C(O)[C@H]1[C@H]2C[C@H]3c4[nH]c5ccccc5c4CCN3C[C@@H]2CC[C@@H]1O [Yohimbinic acid monohydrate]
IC50 of cell viability: > 46 µM

CC1(CN2CCC(n3c(=O)[nH]c4ccccc43)CC2)OCc2ccccc2-n2cccc21 (stereo unspecified) [ZALDARIDUM]
IC50 of cell viability: > 46 µM

O=C(CCC1CCN(Cc2ccccc2)CC1)c1ccc2c(c1)NCCCC2 [ZANAPEZIL FUMARATE]
IC50 of cell viability: > 46 µM

COc1ccc(CCN(C)CCCN2CCc3cc(OC)c(OC)cc3CC2=O)cc1OC [ZATEBRADINUM]
IC50 of cell viability: > 46 µM

O=C(O)Cc1ccc(OCCNC[C@H](O)c2ccccc2)cc1 [ZD 2079]
IC50 of cell viability: > 46 µM

CC1=C(/C=C/C(C)=C\C=C\C(C)=C\C=C\C=C(C)\C=C\C=C(C)\C=C\C2=C(C)C[C@@H](O)CC2(C)C)C(C)(C)C[C@H](O)C1 [ZEAXANTHIN]
IC50 of cell viability: > 46 µM

C\C1=C\N([C@H]2C[C@H](N=[N+]=[N-])[C@@H](CO)O2)C(=O)NC1=O [ZIDOVUDINE]
IC50 of cell viability: > 46 µM

O=C([O-])c1ccccc1O [ZINC SALICYLATE]
IC50 of cell viability: > 46 µM

CC(CSC(=O)c1ccccc1)C(=O)N1CC(Sc2ccccc2)CC1C(=O)[O-] (stereo unspecified) [ZOFENOPRIL Calcium Salt]
IC50 of cell viability: > 46 µM

C[C@H](CSC(=O)c1ccccc1)C(=O)N1C[C@@H](Sc2ccccc2)C[C@H]1C(=O)O [ZOFENOPRIL]
IC50 of cell viability: > 46 µM

CN(C)CCc1c[nH]c2ccc(CC3COC(=O)N3)cc12 (stereo unspecified) [ZOLMITRIPTAN]
IC50 of cell viability: > 46 µM

Cc1ccc(-c2nc3ccc(C)cn3c2CC(=O)N(C)C)cc1 [ZOLPIDEM]
IC50 of cell viability: > 46 µM

Cc1cc(CC(=O)O)n(C)c1C(=O)c1ccc(Cl)cc1 [ZOMEPIRAC SODIUM]
IC50 of cell viability: > 46 µM

COc1cc(N)c(Cl)cc1C(=O)NC1CN2CCC1CC2 (stereo unspecified) [Zacopride hydrochloride]
IC50 of cell viability: > 46 µM

COc1cc(C(=O)NS(=O)(=O)c2ccccc2C)ccc1Cc1cn(C)c2ccc(NC(=O)OC3CCCC3)cc12 [Zafirlukast]
IC50 of cell viability: > 46 µM

CCN(C(C)=O)c1cccc(-c2ccnc3c(C#N)cnn23)c1 [Zaleplon]
IC50 of cell viability: > 46 µM

C[C@H](C(=O)O)c1ccc2c(c1)CC(=O)c1ccccc1S2 [Zaltoprofen]
IC50 of cell viability: > 46 µM

c1ccc(C(OC2CCCN(CCc3ccc4c(c3)OCO4)C2)c2ccccc2)cc1 (stereo unspecified) [Zamifenacin fumarate]
IC50 of cell viability: > 46 µM

CC(=O)NC1[C@H]([C@H](O)[C@H](O)CO)OC(C(=O)O)=C[C@H]1NC(=N)N (stereo partly specified) [Zanamivir]
IC50 of cell viability: > 46 µM

Oc1cc2cc(CCN3CCN(c4nsc5ccccc45)CC3)c(Cl)cc2[nH]1 [Zaprasidone]
IC50 of cell viability: > 46 µM

CCCOC1=C(C=CC=C1)\C2=N\C(=O)C3=C([NH]N=N3)N2 [Zaprinast]
IC50 of cell viability: > 46 µM

COC1=C(OC(F)F)C=CC(=C1)C/2=N/NC(=O)/C=C2 [Zardaverine]
IC50 of cell viability: > 46 µM

C[C@H]1CCC[C@H](O)CCCCCc2cc(O)cc(O)c2C(=O)O1 [Zearalanol]
IC50 of cell viability: > 46 µM

CN(C)C/C=C(/c1ccc(Br)cc1)c1cccnc1.Cl.Cl [Zimelidine dihydrochloride]
IC50 of cell viability: > 46 µM

Cl.O.O=C1Cc2cc(CCN3CCN(c4nsc5ccccc45)CC3)c(Cl)cc2N1 [Ziprasidone hydrochloride monohydrate]
IC50 of cell viability: > 46 µM

O=P(O)(O)C(O)(Cn1ccnc1)P(=O)(O)O [Zoledronic acid]
IC50 of cell viability: > 46 µM
